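Values below derive from 48-hour exposures of cells grown in 96-well plates, with endpoints linearly interpolated between the two concentrations bracketing the appropriate inhibition level. At the GI50, growth is halved.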 Activity calls are given as the source filed them. Cut-off read from the data, not from the text of the source: active = GI50 up to about 1.1 µM and inactive = higher.
Experiments:
Experiment in all cases: NCI tumour cell line growth inhibition, 48 h
NCI-H23 = system: NCI-H23
CAKI-1 = system: CAKI-1
CCRF-CEM = system: CCRF-CEM
UACC-62 = system: UACC-62
T47D = system: T47D
U-251 = system: U-251
TK-10 = system: TK-10
SNB-75 = system: SNB-75
MDA-MB-435 = system: MDA-MB-435
LOX IMVI = system: LOX IMVI
HCT-116 = system: HCT-116
HOP-92 = system: HOP-92
IGROV-1 = system: IGROV-1
NCI/ADR-RES = system: NCI/ADR-RES
MOLT-4 = system: MOLT-4
SF-295 = system: SF-295
NCI-H460 = system: NCI-H460
A549 = system: A549
SK-MEL-5 = system: SK-MEL-5
OVCAR-4 = system: OVCAR-4

Row | Structure (SMILES) | GI50 (NCI-H23) | GI50 (CAKI-1) | GI50 (CCRF-CEM) | GI50 (UACC-62) | GI50 (T47D) | GI50 (U-251) | GI50 (TK-10) | GI50 (SNB-75) | GI50 (MDA-MB-435) | GI50 (LOX IMVI) | GI50 (HCT-116) | GI50 (HOP-92) | GI50 (IGROV-1) | GI50 (NCI/ADR-RES) | GI50 (MOLT-4) | GI50 (SF-295) | GI50 (NCI-H460) | GI50 (A549) | GI50 (SK-MEL-5) | GI50 (OVCAR-4)
1 | CCOC(=O)c1ccc(Nc2nc3ccccc3n3cccc23)cc1 | 63.8 µM (inactive) | > 100 µM (inactive) | 0.0217 µM (active) | 40.8 µM (inactive) | 9.57 µM (inactive) | 28.4 µM (inactive) | 34.8 µM (inactive) | 22.2 µM (inactive) | 3.27 µM (inactive) | 50.2 µM (inactive) | > 100 µM (inactive) | 52.7 µM (inactive) | 46.6 µM (inactive) | 38.1 µM (inactive) | > 100 µM (inactive) | 27.1 µM (inactive) | 84.7 µM (inactive) | 86.5 µM (inactive) | 66.8 µM (inactive) | 
2 | C[n+]1c(/C=C/c2ccc(/C=N/NC(=O)c3ccc(C(=O)N/N=C/c4ccc(/C=C/c5cn6ccccc6[n+]5C)cc4)cc3)cc2)cn2ccccc21 | > 100 µM (inactive) | > 100 µM (inactive) | 20 µM (inactive) |  | > 100 µM (inactive) | > 100 µM (inactive) | > 100 µM (inactive) | > 100 µM (inactive) | > 100 µM (inactive) | > 100 µM (inactive) | > 100 µM (inactive) | > 100 µM (inactive) | > 100 µM (inactive) | > 100 µM (inactive) | 30.9 µM (inactive) | > 100 µM (inactive) | > 100 µM (inactive) | > 100 µM (inactive) | 1.89 µM (inactive) | 
3 | O=C(CC(=O)Nc1cccc(C(=O)O)c1)Nc1cccc(C(=O)O)c1 | > 100 µM (inactive) | > 100 µM (inactive) | > 100 µM (inactive) | 96.6 µM (inactive) | > 100 µM (inactive) | > 100 µM (inactive) | > 100 µM (inactive) |  | > 100 µM (inactive) | > 100 µM (inactive) | > 100 µM (inactive) | > 100 µM (inactive) | > 100 µM (inactive) | > 100 µM (inactive) | > 100 µM (inactive) | > 100 µM (inactive) | > 100 µM (inactive) | > 100 µM (inactive) | > 100 µM (inactive) | > 100 µM (inactive)
4 | COC(=O)C1(Cc2ccccc2)Cc2cc3c(cc2C1=O)CCC3 (configuration not stated) | 56.2 µM (inactive) |  | 22.6 µM (inactive) | 33.4 µM (inactive) | 13.4 µM (inactive) | 33.6 µM (inactive) | 64 µM (inactive) | 27.7 µM (inactive) | 15.1 µM (inactive) | 27 µM (inactive) | 23.8 µM (inactive) | 11.6 µM (inactive) | 36 µM (inactive) | 30.5 µM (inactive) | 17.1 µM (inactive) | 38.2 µM (inactive) | 4.44 µM (inactive) | 16.6 µM (inactive) | 16.6 µM (inactive) | 33.7 µM (inactive)
5 | O=C(Nc1nn(C(=O)c2ccc(Cl)cc2)c(=O)s1)c1ccc(Cl)cc1 | > 100 µM (inactive) | > 100 µM (inactive) | 76.4 µM (inactive) | > 100 µM (inactive) | > 100 µM (inactive) | > 100 µM (inactive) | > 100 µM (inactive) |  | > 100 µM (inactive) | > 100 µM (inactive) | > 100 µM (inactive) | > 100 µM (inactive) | > 100 µM (inactive) | > 100 µM (inactive) | > 100 µM (inactive) | > 100 µM (inactive) | > 100 µM (inactive) | > 100 µM (inactive) | > 100 µM (inactive) | > 100 µM (inactive)
6 | COC(=O)c1c(C(=O)OC)c2ccc(-c3ccc(Cl)cc3)nn2c1C(=O)c1ccc([N+](=O)[O-])cc1 | > 100 µM (inactive) | 32.9 µM (inactive) | 17.1 µM (inactive) | > 100 µM (inactive) | 27.9 µM (inactive) | > 100 µM (inactive) | 28.1 µM (inactive) |  | 50.1 µM (inactive) | 39 µM (inactive) | 27.2 µM (inactive) | 10.8 µM (inactive) |  | > 100 µM (inactive) | 15.3 µM (inactive) | > 100 µM (inactive) | > 100 µM (inactive) | > 100 µM (inactive) | 52.1 µM (inactive) | 42.3 µM (inactive)
7 | Cc1nc(N)c(N2CCNCC2)c(O)n1 | > 100 µM (inactive) |  | > 100 µM (inactive) |  | > 100 µM (inactive) | > 100 µM (inactive) | > 100 µM (inactive) | > 100 µM (inactive) | > 100 µM (inactive) | > 100 µM (inactive) | > 100 µM (inactive) | > 100 µM (inactive) |  | > 100 µM (inactive) | > 100 µM (inactive) | > 100 µM (inactive) | > 100 µM (inactive) | > 100 µM (inactive) |  | 

From ChEMBL document CHEMBL1201862, “PubChem BioAssay data set” (2004)
